Experimental data as given in patent publication US7498406B2, “Substantially cell membrane impermeable compound and use thereof” (priority 1999, dated 2009).

Assays:
BVSM = experiment: Viability of cultured cells, 72 hr; assay type: cell-based, bovine; settings: 5% BCS, 0 to 1 mM
Method: FIG. 19. Effect of GSAO on proliferation of non-endothelial cells. 15,000 BxPC-3 (part A), HT1080 (part B), 3T3 (part C) or BVSM (part D) cells per well were seeded into gelatinised 24-well culture plates and allowed to attach for 24 hr. The media was then replaced with DMEM containing 0 to 1 mM GSAO or GSAA and either 5% BCS (part D) or 5% FCS (parts A, B and C). Cells were cultured for 72 hr and then dispersed and counted. The dotted lines indicate the cell number in control wells containing DMEM and 2% BCS (part D) or 2% FCS (parts A, B and C) which represented no to limited proliferation. The data points and errors represent the mean and range of duplicate wells.
BCE (Folkman et al. 1979), BAE, BxPC-3 (ATCC, Bethesda, Md.), HT1080 (Jiang et al., 1999), 3T3 (ATCC, Bethesda, Md.) and BVSM (Hogg et al., 1997) cells were harvested and cultured as indicated. […] Cells were cultured for 0 to 72 hr in 10% CO2 at 37° C. then dispersed in trypsin/EDTA (GibcoBRL, Granc Island, N.Y.), resuspended in Coulter balanced electrolyte solution and counted with a Z1 Coulter counter (Coulter Corp., Miami, Fla.) in all experiments there were two control wells containing DMEM with 1% GPS and either 5% BCS for BCE cells, 2% BCS for BAE and BVSM cells, or 2% FCS for BxPC-3, HT1080 and 3T3 cells. […]

Human T cells (A3.01) = experiment: Tritiated GSAO in cytosol (membrane permeability); assay type: in vitro ADME
Method: Human T cells (A3.01) or adherent BAE cells were incubated with complete medium containing 50 μM GSAO and ˜100,000 counts per, minute of tritiated GSAO for 1 or 72 hours. Tritiated GSAO was prepared exactly as described for GSAO except that glycine-2-^3H-glutathione (NEN, Boston, Mass.) was used in place of cold glutathione. The cells were washed and lysed by two cycles of freezing and thawing. The cytosolic constituents were collected by differential centrifugation (Ausbel et al., 2000) and the tritiated GSAO was measured. Only 0.5% of the total tritiated GSAO was found in the T cell cytosol and 0.04% in the BAE cytosol after 1 hour. Moreover, only 4.5% of the GSAO penetrated the T cell membrane after 72 hours of culture.

HT1080 tumours = experiment: Tumour growth in mice, subcutaneous administration; assay type: in vivo, SCID mice; settings: 10 mg per kg per day
Method: FIG. 25. Inhibition of human fibrosarcoma and murine Lewis lung tumour growth following systemic administration of GSAO. HT1080 or Lewis lung tumours were established in the proximal midline of female 7 to 9 week old SCID or C57Bl6/J mice, respectively. When the tumours were ˜0.1 cm^3 in volume the mice were randomised into two groups (n=5) and treated with either GSAA or GSAO at a dose of 10 mg per kg per day in 0.2 mL of PBS containing 100 mM glycine. The compounds were administered subcutaneously at a site distant from the tumour. Tumour volume and animal weight was measured every 3 days. The GSAO/GSAA HT1080 tumour volume ratio at day 17 of treatment was 0.29 (part A). The GSAO/GSAA Lewis lung tumour volume ratio at day 12 of treatment was 0.29 (part B). The data points and errors represent the mean and SE of the tumour volumes.
Female 7 to 9 week old SCID or C57Bl6/J mice were used (Massachusetts General Hospital, Boston, Mass.). Mice were held in groups of 3 to 5 at a 12 hour day and night cycle and were fed with animal chow and water ad libidum. […] The tumours were measured in two diameters and tumour volume was calculated using the relationship, tumour volume=a×b^2×0.52, where a is the longest and b the shortest diameters in cm. […] Tumour volume and animal weight was measured every 3 days. […]

[1] = Stability of the trivalent arsenicals towards oxidation; assay type: physicochemical; settings: slowed by removal of O2, lower pH or glycine
Description: This oxidation can be slowed in three ways; removal of dissolved O2 from solutions containing the arsenoxides, lowering the pH of these solutions, or by addition of glycine to the solutions. Glycine is routinely used to prevent oxidation of the stock solutions of the trivalent organoarsenicals. Similar to the reaction between 2,3-dimercaptopropanol and R—As(OH)2 in which a 5-membered dithioarsonite (XI) is formed, reaction of glycine with R—As(OH)2 is thought to give a 5-membered cyclic 1,3,2-oxazarsolidin-5-one (XII).

## N[C@@H](CCC(=O)N[C@@H](CSCC(=O)Nc1ccc([As](=O)(O)O)cc1)C(=O)NCC(=O)O)C(=O)O [GSAA, 4-(N-(S-glutathionylacetyl)amino)phenylarsonic acid, reference compound]
BVSM
  Viability IC50: no significant effect

## NC(CCC(=O)NC(CSCC(=O)Nc1ccc([As]=O)cc1)C(=O)NCC(=O)O)C(=O)O (stereo not shown) [GSAO, 4-(N-(S-glutathionylacetyl)amino)-phenylarsenoxide]
Human T cells (A3.01); 50 μM GSAO, 1 hour
  total tritiated GSAO found in the cytosol: 0.5%
Human T cells (A3.01); 50 μM GSAO, 72 hours of culture
  GSAO that penetrated the T cell membrane: 4.5%
Human T cells (A3.01); A3.01 or BAE cells
  crossing of the plasma membrane: does not cross the plasma membrane to any significant extent
HT1080 tumours; subcutaneous
  inhibition of the rate of fibrosarcoma tumour growth: ~70%
HT1080 tumours; day 17 of treatment
  GSAO/GSAA HT1080 tumour volume ratio: 0.29
[1]
  stability of solutions towards oxidation: deactivated over time by oxidation
